The values below come from US10016409B2, “Method for improving interstitial flow” (priority 2012, dated 2018).

Each structure is given as a SMILES string.

The test system of one series is MCI patients. Nature of the series: Retrospective clinical survey, MMSE change in patients with first MMSE score 22 to 26 (MCI), no anti-dementia drugs. The format is in vivo, human. The source says:
Harmful proteins such as tau protein, α-synuclein protein, amyloid β protein, and ubiquitinated protein, which cause disorders in nerve function, are gradually accumulated in the brain with age. Irrespective of the type of accumulated harmful proteins, mild disorders in cognitive function is observed in an initial stage. However, in this stage, irreversible neuron degeneration in cranial nerve tissues has been seldom observed yet. Thus, activation of the interstitial flow, which is one of major drainage pathways of harmful proteins, might cure mild disorders of cognitive function. To examine this hypothesis, it was evaluated how consecutive oral administration of cilostazol affects cognitive functions of patients having MMSE scores greater than or equal to 22 and less than or equal to 26 and suspected to have mild deterioration of cognitive function.
A survey was conducted on consecutive cases (3183 cases in total) between 1996 and 2012 whose records of cilostazol administration exist, and examination using all the cases that match the following conditions was carried out. In this examination, to eliminate the influence of anti-dementia drugs, all the patients administered with anti-dementia drugs such as donepezil were removed from the analysis.
(i) The mini mental state exam (MMSE), which is a typical test of cognitive function, was performed twice or more with an interval of 6 months or more a case where the MMSE was performed three or more times, two examination results of the first examination and the last examination were selected);
(ii) The first MMSE score was greater than or equal to 22 and less than or equal to 26;
(iii) A case in which cilostazol was administered in a period at least more than a half of an MMSE observation period was selected as a group (hereinafter referred to as a treated group) subjected to consecutive treatment; and
(iv) A case in which cilostazol was administered in two months or less in the MMSE observation period was selected as a group (hereinafter referred to as an untreated group) not subjected to consecutive treatment.
(i) The rate of change in MMSE scores in each group (calculation method: [last MMSE score−first MMSE score]/MMSE observation period [years]); and
(ii) The rate of change in scores in each item of the MMSE test in each group (calculation method: [score of last MMSE test item−score of first MMSE test item]/MMSE observation period [years]).
In comparison between the two groups, statistical analysis was conducted such that the rate difference was obtained by using a chi-square test and other items were obtained by using a t test.

The next series relates to Tg-SwDI mice. The experiment in a line: Cerebrovascular diameter increase under acetylcholine administration to the brain surface. The format is in vivo. The note with it: acetylcholine 100 μM perfused, vs ordinary feed. The text has this:
In the brain interstitial flow in a central nervous system, vascular wall motion due to artery vascular pulsation serves as a driving force so that harmful proteins are excreted. Dilation of artery in vascular pulsation occurs when the blood pressure in artery increases due to pulsation of heart. A decrease in dilation ability of artery attenuates vascular wall motion, and reduces the interstitial flow accordingly. In the presence of aged mice and cerebral amyloid angiopathy, vascular elasticity (flexibility) of cerebral artery considerably decreases, and vascular wall motion attenuates. Thus, the ability of excretion of harmful proteins deteriorates. In this study, the influence of cilostazol administration on vascular elasticity ability under acetylcholine administration was examined.
It is known that acetylcholine has the physiological action of improving vascular elasticity. […]
In a manner similar to section (1) regarding vascular elasticity enhancement by cilostazol discussed above, model mice (Tg-SwDI mice) (Davis et al, 2004) showing pathological changes, especially cerebral amyloid angiopathy, were used. […] Cerebral blood vessels were visualized with FITC-dextran, and the rate of change in vessel diameter from a time before administration to 3 minutes after the start of administration was analyzed. […]

The next series deals with dementia patients. Nature of the series: Clinical record analysis, MMSE change in dementia patients (MMSE less than or equal to 21) under donepezil hydrochloride oral administration. The format is in vivo, human. The note with it: dementia patients oral-administered with donepezil hydrochloride.
In another series the test system is Alzheimer's patients. Particulars: cilostazol alone in Alzheimer's patients, Non-patent Document 10; cited from earlier work.

Excerpt for dementia patients: Patients subjected to oral administration of donepezil hydrochloride, having an observation period of one or more years before the MMSE test date, and having first MMSE scores less than or equal to 26 were picked up from a clinical record. Among the patients, patients recorded to have been consecutively administered with cilostazol for 6 months or more in the observation period were classified as a donepezil hydrochloride and cilostazol combined use group (69 cases), and patients recorded to have experienced no cilostazol oral administration were classified as a donepezil hydrochloride single use group (87 cases). Cilostazol was oral-administered at a dosage of 50 to 200 mg/day in the morning and evening, and donepezil hydrochloride was administered at a dosage of 5 mg/day once in a day.
As a dementia patient group oral-administered with donepezil hydrochloride, patients with MMSE scores less than or equal to 21 were extracted. Then, the donepezil hydrochloride single use group (the single use group) was 51 cases (17 males and 34 females, average age: 78.2 years old) and the donepezil hydrochloride and cilostazol combined use group (the combined use group) was 35 cases (14 males and 21 females, average age: 79.3 years old). The average dosage of cilostazol in the combined use group was 139 mg/day.

In the case of `O=C1CCc2cc(OCCCCc3nnnn3C3CCCCC3)ccc2N1` [cilostazol, 6-[4-(1-cyclohexyl-1H-tetrazole-5-yl)butoxy]3,4-dihydrocarbostyril], in the series with MCI patients (MCI patients, as described in Example (4)), the “increase in MMSE scores (treated vs untreated group)” value was “about 4”. The “rate of change in MMSE score” value with MCI patients (MCI treated group (31 cases), first MMSE 22-26, average±standard error, P=0.007 vs untreated) worked out at 0.4±0.7 per year. Also, in the series on MCI patients (MCI treated group, score change/observation period [years], P=0.004 vs untreated), the “rate of change in MMSE item 5 of delayed recall” value stood at 0.16±0.13. For the same compound, the “rate of change in MMSE item 9 of command with sentence” value with MCI patients (MCI treated group, score change/observation period [years], P=0.008 vs untreated) amounted to 0.01±0.06. In addition, the “rate of change in MMSE item 11 of visual configuration” value in the series on MCI patients (MCI treated group, score change/observation period [years], P=0.02 vs untreated) is reported as 0.03±0.08. In the series with MCI patients (MCI treated group, score change/observation period [years], P=0.03 vs untreated), the “rate of change in MMSE item 1 of orientation to time” value is reported as −0.13±0.16. Also, in the series with MCI patients (untreated group of MCI survey), the “side effects leading to no consecutive cilostazol treatment” value was “side effects such as diarrhea and headaches”. Further, the “relative increase in cerebrovascular diameter under acetylcholine administration” value with Tg-SwDI mice (cilostazol-containing feed for 8 months, age 12 months, FIG. 23) is listed as “dilated”; in the series on Tg-SwDI mice (cilostazol-containing feed for 13.5 months, age 15 months, FIG. 24), “dilated”. Besides, in the series on dementia patients, the effectiveness for dementia entry is “no effectiveness for dementia”. For the same compound, the “mini-mental state examination (MMSE)” value with Alzheimer's patients is listed as “no change is observed”.
